From patent US12331042B2, “Compounds suitable for the treatment and prophylaxis of muscle wasting and other conditions” (priority 2019, dated 2025)
Entries after “also recorded” stand apart in the source; their conditions may differ.

Tests used:
MuRF1 E3 ligase activity = MuRF1 E3 ligase activity (Homo sapiens, UniProt Q969Q1); assay: Inhibition of MuRF1 E3 ligase activity (ubiquitination, Western blot); assay type: biochemical; conditions: 20-100 μmol/L compound, 1 h at 37° C., based on ubiquitination patterns
MuRF1 E3 ligase activity, sequence (Q969Q1 whole entry): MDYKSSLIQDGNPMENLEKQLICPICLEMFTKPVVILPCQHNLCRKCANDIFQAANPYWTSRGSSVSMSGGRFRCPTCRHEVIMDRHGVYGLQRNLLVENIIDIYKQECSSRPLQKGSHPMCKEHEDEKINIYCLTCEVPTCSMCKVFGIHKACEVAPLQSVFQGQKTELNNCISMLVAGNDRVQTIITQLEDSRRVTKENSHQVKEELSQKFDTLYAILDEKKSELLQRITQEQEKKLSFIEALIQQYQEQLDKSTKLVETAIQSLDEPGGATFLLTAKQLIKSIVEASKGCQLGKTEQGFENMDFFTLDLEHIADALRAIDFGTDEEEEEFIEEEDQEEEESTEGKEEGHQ
Method: Compounds were then assessed for effects on MuRF1 E3 ligase activity directed to titin or to MuRF1 itself (self-ubiquitination) by mixing 75 nmol/L UBE1 (Boston Biochem), 1 μmol/L UbcH5c (Boston Biochem), 100 μmol/L Ubiquitin, 4 mmol/L ATP, 100 nmol/L Titin A168-170 with 20-100 μmol/L of respective compounds. Reactions were started by addition of 220 nmol/L MuRF1, followed by 1 h at 37° C., SDS PAGE and Western blot analysis with MuRF1 and titin specific antibodies. All reactions also included 5% DMSO.

[1] = system: MuRF1, Nox 2, LC3 I/II, nitrotyrosine; assay: Protein expression and nitrotyrosine in muscle tissue of B16F10 mice; assay type: in vivo; conditions: tumor+compound vs tumor
Method: Protein expression of MuRF1, Nox 2 and LC3 I/II in muscle tissue of B16F10 mice was determined as described above for the MCT and CHF mice. In addition, the level of the reactive oxygen species marker nitrotyrosine was determined.

[2] = system: C2C12 myotubes (myocytes); assay: Cytotoxicity, LDH release in cultured myotubes (myocytes); assay type: cell-based, Murine; conditions: increasing concentrations, 24 h
Method: (§1) Murine C2C12 myoblasts (CRL-1772, ATCC) were cultured in DMEM (Lonza; Basel, Switzerland) supplemented with 10% fetal calf serum (FCS; Gibco®Invitrogen, Carlsbad, CA). For induction of differentiation into myotubes, subconfluent cultures were switched to DMEM containing 2% horse serum (Sigma-Aldrich; Seelze, Germany). Myotubes were subsequently pre-treated for 2 h with increasing compound concentrations (0.1 to 10 μmol/L, dissolved in DMSO) or with an equal volume of DMSO before treatment for 24 h with 10 μmol/L dexamethasone (DEX; Sigma-Aldrich; Seelze, Germany). Myotube diameter was then evaluated by image analysis software (Analysis 3.0, Olympus Soft Imaging Solutions GmbH, Munster, Germany). To determine cytotoxicity of selected compounds, myoblasts or myotubes were incubated with increasing concentrations for 24 h. Subsequently, the concentration of lactate dehydrogenase (LDH) activity was quantified in the cell culture supernatant as a measure for cell destruction as described in Bellocci et al., Anal Biochem, 2008, 374, 48-55.

[3] = system: MuRF1 mRNA in C2C12 myotubes; assay: MuRF1 mRNA in C2C12 myotubes treated with dexamethasone (RT-PCR); assay type: cell-based, Murine; conditions: pre-treatment at 0.1 μmol/L and 10 μmol/L, then 24 h dexamethasone 10 μmol/L
Method: as §1
After the incubation period, Total RNA was isolated from C2C12 cells and reverse transcribed into cDNA using random hexamers and Sensiscript reverse transcriptase (Qiagen, Hilden, Germany). An aliquot of the cDNA was used for quantitative RT-PCR, applying the Light Cycler system (Roche Diagnostics, Mannheim, Germany). […]

[4] = system: citrate synthase and mitochondrial complex I; assay: Enzyme activity measurements in muscle tissue, B16F10 mice; assay type: in vivo; conditions: tumor+compound vs tumor
Method: The enzyme activities of citrate synthase and mitochondrial complex I in muscle tissue of B16F10 inoculated mice were determined as described above for the […] mice.

[5] = system: eIF2B4, AS3MT, ATPAF1, GHDC, BAX protein levels in diaphragm; assay: Proteomic analysis (mass spectrometry) of diaphragm, MCT mice; assay type: in vivo; conditions: MCT + MyoMed-946/MCT, n=3 per group
Method: Proteins from frozen diaphragm samples in sham, MCT, and MCT+compound mice (n=3 per group) were powdered under liquid N2. Mass spectrometry was then performed at the DZHK mass spectrometry core facility at Bad Nauheim, as described in Konzer et al., Methods in molecular biology, 2013, 1005, 39-52. The relative ratios for MCT/sham and MCT+compound/MCT were determined, with only hits deemed to be differentially expressed and highly significant (P<0.01) further studied by Western blot.

SMILES: Cc1cc(=O)oc2cc(OCc3ccc(C(=O)OCC(=O)NC(=O)NCc4ccco4)cc3)ccc12 [MyoMed-946, [2-(2-furylmethylcarbamoylamino)-2-oxo-ethyl] 4-[(4-methyl-2-oxo-chromen-7-yl)oxymethyl]benzoate]
- inhibition of MuRF1 E3 ligase activity (MuRF1 E3 ligase activity): significantly inhibit MuRF1 E3 ligase activity
- downregulation of expression levels of LC3 I/II [1]: attenuated; also recorded: not observed
- expression of Nox 2 [1]: attenuated; also recorded: significantly reduced
- tissue level of nitrotyrosine [1]: attenuated; also recorded: significantly reduced
- up-regulation of MuRF1 expression [1]: attenuated; also recorded: prevented
- toxicity (LDH release) [2]: low toxicity
- expression of MuRF1 at the mRNA level [3]: reduced MuRF1 mRNA levels; also recorded: prevented
- citrate synthase enzyme activity [4]: attenuated; also recorded: partially or complete restores
- Protein Ratio (log2), AS3MT [5]: −0.31
- Protein Ratio (log2), ATPAF1 [5]: −0.68
- Protein Ratio (log2), BAX [5]: −0.73
- Protein Ratio (log2), GHDC [5]: −0.39
- Protein Ratio (log2), eIF2B4 [5]: 0.32
